According to article PMC12607616, “Elucidation of a bacterial pathway for catabolism of the β–β-linked dilignol pinoresinol” (mBio, 2025):
Read-outs that look alike come from different tables or passages of the source.

Test system: T1, PinZ
T1 construct: full-length, N-terminal hexahistidine tag kept (pET-28a(+), pJM492), E. coli BL21 Star (DE3)
Test: steady-state kinetics, reversed-phase HPLC
Format: biochemical, Novosphingobium rhizosphaerae
Conditions: NADPH co-substrate, 20 mM Tris-HCl pH 7.0, 30 °C, 10 min, read-out: apparent Km

SMILES | Km (racemate) | Km (~88% e.e. (+)-pinoresinol preparation)
COc1cc(C2OCC3C(c4ccc(O)c(OC)c4)OCC23)ccc1O (racemic) [(±)-pinoresinol] | 27 ± 6.6 µM | 
COc1cc([C@H]2OC[C@H]3[C@@H]2CO[C@@H]3c2ccc(O)c(OC)c2)ccc1O [(+)-pinoresinol] |  | 22.1 ± 3.2 µM
